Assay results as given in patent publication US20260355169A1, “METHODS OF TREATING CANCERS USING ISOQUINOLINE OR 6-AZA-QUINOLINE DERIVATIVES” (Black Diamond Therapeutics, Inc., priority 2022, published 2026).

System: BaF3 BRAF-KIAA1549 fusion cells
Experiment: BaF3 BRAF-KIAA1549 fusion cell proliferation assay
Type: cell-based
Settings: Mus musculus, BaF3, 96 h, read-out: IC50, inhibition of cell growth, BaF3-BRAF:KIAA1549 Fusion
Description: Retroviral Production: The BRAF-KIAA1549 fusion mutant was subcloned into pMXs-IRES-Blasticidin (RTV-016, Cell Biolabs, San Diego, CA). […]. Briefly, HEK 293T cells were plated in Poly-D-lysine coated 6-well plate (2.5×10^5 cells per well) and incubated overnight. The next day, retroviral plasmids (1 μg of BRAF-KIAA fusion mutant, 0.32 μg of pCMV-Gag-Pol and 0.165 μg pCMV-VSV-G) were mixed in 300 μL of Optimem (31985, Life Technologies). The mixture was incubated at room temperature for 5 minutes and then added to Optimem containing transfection reagent Lipofectamine (11668, Invitrogen) and incubated for 20 minutes. The mixture was then added dropwise to HEK 293T cells. The next day the medium was replaced with fresh culture medium and retrovirus was harvested at 24 hours.
Generation of BRAF-KIAA1549 fusion stable cell line: BaF3 cells were plated in V-bottom 96 well plate (COSTAR #3894) in 80 μL of RPMI/10% FBS and 0.01 ng/mL mouse IL-3, supplemented with 8 μg/mL polybrene (4×10^4 cells/well). Cells were transduced with 20 μL of BRAF-KIAA1549 fusion viral supernatant by centrifuging for 30 minutes at 1000 rpm. Cells were placed in a 37 °C incubator overnight. Next day 100 μL of RPMI/10% FBS and 0.01 ng/mL mouse IL-3 was added. After 24 hours, 100 μL of cells were transferred to a 24 well plate containing 900 μL of RPMI/10% FBS and 15 μg/mL Blasticidin. Contents of the 24 well plate were sampled for cell viability via CellTiterGlo (Promega) over a 2-week period.
Assay for cell proliferation: BaF3 BRAF-KIAA1549 fusion cells were resuspended at 1.5×10^5 c/mL in RPMI containing 10% Heat Inactivated FBS, 1% L-glutamine and dispensed in duplicate ([…]) into 384 well plates. To determine the effect of compound on cell proliferation, BaF3 BRAF-KIAA1549 fusion cells were incubated for 96 hours in the presence of vehicle control (DMSO) or compound at varying concentrations. Inhibition of cell growth was determined by luminescent quantification (Envision by Perkin Elmer) of intracellular ATP content using CellTiterGlo (Promega), according to the protocol provided by the manufacturer. To determine the IC50 values, the vehicle-treated cells were normalized as viable cells and analyzed using the CDD Vault, Collaborative Drug Discovery, Burlingame, CA (the Levenberg-Marquardt algorithm; Levenberg, K, […]; Marquardt, D., 1963).
Table A assigns each compound a code for potency in the BaF3 BRAF-KIAA1549 fusion cell proliferation assay: A, B, C, or D. According to the code, A represents an IC50 value<20 nM; B represents an IC50 value≥20 nM and <100 nM; C represents an IC50 value≥100 nM and <500 nM; and D represents an IC50 value≥500 nM.

| IC50 | Compound |
| --- | --- |
| 20 to 100 nM | Cc1ccc(NC(=O)c2cc(C(C)(C)C#N)ccn2)cc1-c1ccc2c3c(ncc2c1)NC(=O)C3 [compound 275] |
| 20 to 100 nM | CNc1cc2ncc(-c3cc(C(=O)Nc4cc(C(C)(C)C#N)ccn4)ccc3C)cc2cn1 [compound 53] |
| 20 to 100 nM | CNc1cc2ncc(-c3cc(NC(=O)c4ccnc(C5CC(F)(F)C5)c4)cnc3C)cc2cn1 [compound 34] |
| < 20 nM | CNc1cc2ncc(-c3cc(NC(=O)c4cc(C(F)(F)F)ccn4)ccc3C)cc2cn1 [compound 1] |
| 20 to 100 nM | CNc1cc2ncc(-c3cc(NC(=O)c4cc(C(O)C(C)C)ccn4)cnc3C)cc2cn1 (centres unmarked) [compound 202] |
| 20 to 100 nM | CNc1cc2ncc(-c3cc(NC(=O)c4cc(C(C)(C)C#N)ccn4)ccc3Cl)cc2cn1 [compound 41] |
| > 500 nM | CNc1cc2ncc(-c3cc(NC(=O)c4cccc5c4CCC[C@H]5O)cnc3C)cc2cn1 [compound 207] |
| > 500 nM | CNc1cc2ncc(-c3c(C)ncc(NC(=O)c4cc(C(C)(C)C#N)ccn4)c3Cl)cc2cn1 [compound 197] |
| < 20 nM | CNc1cc2ncc(-c3cc(NC(=O)c4cccc(C(C)(F)F)c4)cnc3C)cc2cn1 [compound 200] |
| 20 to 100 nM | CNc1cc2ncc(-c3cc(NC(=O)c4cc(C(C)(C)C#N)ccn4)cc(F)c3C)cc2cn1 [compound 38] |
| < 20 nM | CNc1cc2ncc(-c3cc(NC(=O)c4ccnc(C5CC(F)(F)C5)c4)ccc3C)cc2cn1 [compound 17] |
| 20 to 100 nM | CNc1cc2ncc(-c3cc(NC(=O)c4noc5c4C[C@@H](C)CC5)ccc3C)cc2cn1 [compound 236] |
| 100 to 500 nM | CNc1cc2ncc(-c3cc(NC(=O)c4cnc5n4C(C)CCC5)ccc3C)cc2cn1 (centres unmarked) [compound 205] |
| > 500 nM | CNc1cc2ncc(-c3cc(NC(=O)c4cnc5n4CCC(C)C5)ccc3C)cc2cn1 (centres unmarked) [compound 195] |
| < 20 nM | CNc1cc2ncc(-c3cc(NC(=O)c4ccnc(C(C)(F)F)c4)cnc3C)cc2cn1 [compound 29] |
| > 500 nM | CNc1cc2ncc(-c3cc(NC(=O)c4noc5c4COCC5)cnc3C)cc2cn1 [compound 246] |
| 20 to 100 nM | CCNc1cc2ncc(-c3cc(NC(=O)c4cc(C(C)(C)C#N)ccn4)cnc3C)cc2cn1 [compound 175] |
| 100 to 500 nM | CNc1ncc2cc(-c3cc(NC(=O)c4ccnc(C5(F)CC5)c4)ccc3C)cnc2c1Cl [compound 269] |
| 20 to 100 nM | CNc1cc2ncc(-c3cc(NC(=O)c4cc(C(C)(F)F)ccn4)ccc3C)cc2cn1 [compound 12] |
| 100 to 500 nM | CNc1cc2ncc(-c3ccc(F)c(NC(=O)c4cc(C(C)(C)C#N)ccn4)c3)cc2cn1 [compound 45] |
| < 20 nM | CNc1cc2ncc(-c3cc(NC(=O)c4ccnc(C5(F)CC5)c4)ccc3C)cc2cn1 [compound 18] |

| IC50 | Compound |
| --- | --- |
| 20 to 100 nM | CNc1cc2ncc(-c3cc(NC(=O)c4ccccc4NC(C)C(F)F)cnc3C)cc2cn1 (centres unmarked) [compound 226] |
| > 500 nM | CNc1ncc2cc(-c3cc(NC(=O)c4ccnc(C(C)(C)C#N)c4)cnc3C)cnc2c1Cl [compound 270] |
| < 20 nM | CNc1cc2ncc(-c3cc(NC(=O)N4CC[C@@H](CC(F)(F)F)C4)ccc3C)cc2cn1 [compound 267] |
| < 20 nM | CNc1cc2ncc(-c3cc(NC(=O)c4n[nH]c5c4CC(C)CC5)ccc3C)cc2cn1 (centres unmarked) [compound 261] |
| 20 to 100 nM | CNc1cc2ncc(-c3cc(NC(=O)c4cc(C(C)(C)C#N)ccn4)cc(F)c3F)cc2cn1 [compound 39] |
| > 500 nM | CNc1cc2ncc(-c3cc(NC(=O)c4n[nH]c5c4CN(C)CC5)cnc3C)cc2cn1 [compound 244] |
| 20 to 100 nM | CNc1cc2ncc(-c3cc(NC(=O)c4ccnc(C(F)(F)F)c4)ccc3C)cc2cn1 [compound 2] |
| < 20 nM | CNc1cc2ncc(-c3cc(NC(=O)c4nccc(C(F)(F)F)c4F)cnc3C)cc2cn1 [compound 52] |
| 20 to 100 nM | CNc1cc2ncc(-c3cc(NC(=O)c4cc(C(F)(F)F)c(C)cn4)ccc3C)cc2cn1 [compound 5] |
| 100 to 500 nM | CNc1cc2c(C#N)cc(-c3cc(NC(=O)c4ccnc(C(F)(F)F)c4)ccc3C)cc2cn1 [compound 273] |
| < 20 nM | CNc1cc2ncc(-c3cc(NC(=O)c4ccnc(C(C)(C)F)c4)ccc3C)cc2cn1 [compound 10] |
| 20 to 100 nM | CNc1cc2ncc(-c3cc(NC(=O)c4csc5c4CCCC5)cnc3C)cc2cn1 [compound 234] |
| 20 to 100 nM | CNc1cc2ncc(-c3cc(NC(=O)c4cc(C(F)F)ccn4)cnc3C)cc2cn1 [compound 22] |
| < 20 nM | CNc1cc2ncc(-c3cc(NC(=O)C[C@@H]4C[C@H](C(F)(F)F)CCO4)ccc3C)cc2cn1 [compound 7] |
| 20 to 100 nM | CNc1cc2ncc(-c3cc(NC(=O)c4cnc5n4CC(C(F)(F)F)CC5)ccc3C)cc2cn1 (centres unmarked) [compound 220] |
| 20 to 100 nM | CNc1cc2ncc(-c3cc(NC(=O)CN4CCC[C@H](C(F)(F)F)C4)ccc3C)cc2cn1 [compound 63] |
| 100 to 500 nM | CNc1cc2ncc(-c3cc(F)cc(NC(=O)c4cc(C(C)(C)C#N)ccn4)c3)cc2cn1 [compound 47] |
| < 20 nM | CNc1cc2ncc(-c3cc(NC(=O)c4cc(C(C)(C)C#N)ccn4)cnn3)cc2cn1 [compound 49] |
| 20 to 100 nM | CNc1cc2ncc(-c3cc(NC(=O)c4cc(C(O)C5CC5)ccn4)cnc3C)cc2cn1 (centres unmarked) [compound 201] |
| < 20 nM | CNc1cc2ncc(-c3cc(NC(=O)c4cc(C(F)(F)F)c(F)cn4)cnc3C)cc2cn1 [compound 60] |
| 20 to 100 nM | CNc1cc2ncc(-c3cc(NC(=O)c4cccc(C(C)(C)C#N)c4)c(F)cc3C)cc2cn1 [compound 223] |

| IC50 | Compound |
| --- | --- |
| 20 to 100 nM | CNc1cc2ncc(-c3cc(NC(=O)c4n[nH]c5c4C[C@@H]4C[C@H]54)cnc3C)cc2cn1 [compound 252] |
| 100 to 500 nM | CNc1cc2ncc(-c3cc(NC(=O)c4cnc5n4CC(C(F)F)CC5)cnc3C)cc2cn1 (centres unmarked) [compound 251] |
| 100 to 500 nM | CNc1cc2ncc(-c3cc(NC(=O)c4cc(C(C)(C)C#N)ccn4)c(Cl)cc3C)cc2cn1 [compound 50] |
| 20 to 100 nM | CNc1cc2ncc(-c3cc(NC(=O)c4ccnc(C(C)(C)C#N)c4)ccc3C)cc2cn1 [compound 56] |
| < 20 nM | CNc1cc2ncc(-c3cc(NC(=O)c4ccnc(C(C)C)c4)cnc3C)cc2cn1 [compound 57] |
| 20 to 100 nM | CNc1cc2ncc(-c3cc(NC(=O)c4cc(C5(C#N)CCC5)ccn4)ccc3C)cc2cn1 [compound 15] |
| 20 to 100 nM | Cc1ncc(NC(=O)c2cc(C(C)(C)C#N)ccn2)cc1-c1cnc2cc(N)ncc2c1 [compound 176] |
| 100 to 500 nM | CNc1ncc2cc(-c3cc(NC(=O)c4ccnc(C(C)(C)C#N)c4)cnc3C)cnc2c1C#N [compound 192] |
| 20 to 100 nM | CNc1ncc2cc(-c3cc(NC(=O)c4ccnc(C5(F)CC5)c4)ccc3C)cnc2c1C#N [compound 271] |
| 20 to 100 nM | CNc1cc2ncc(-c3cc(NC(=O)c4ccnc(C(F)F)c4)ccc3C)cc2cn1 [compound 8] |
| < 20 nM | CNc1cc2ncc(-c3cc(NC(=O)c4cccc(N(C)C)c4)ccc3C)cc2cn1 [compound 4] |
| 20 to 100 nM | CNc1cc2c(C#N)cc(-c3cc(NC(=O)c4ccnc(C5(F)CC5)c4)ccc3C)cc2cn1 [compound 272] |
| > 500 nM | CNc1cc2ncc(-c3cc(NC(=O)c4nccc5c4OCCC5O)cnc3C)cc2cn1 (centres unmarked) [compound 211] |
| < 20 nM | CNc1cc2ncc(-c3cc(NC(=O)c4ccnc(C(C)(F)F)c4)ccc3C)cc2cn1 [compound 9] |
| > 500 nM | CNc1cc2ncc(-c3cc(C(=O)Nc4cccc(C(C)(C)C#N)c4)cnn3)cc2cn1 [compound 196] |
| 20 to 100 nM | CNc1cc2ncc(-c3cc(NC(=O)c4ccnc(C5(F)CC5)c4)c(F)cc3C)cc2cn1 [compound 221] |
| 100 to 500 nM | CNc1cc2ncc(-c3cc(F)c(F)c(NC(=O)c4cc(C(C)(C)C#N)ccn4)c3)cc2cn1 [compound 46] |
| 20 to 100 nM | CNc1cc2ncc(-c3cc(NC(=O)c4cc(C5(C#N)CCC5)ccn4)cnc3C)cc2cn1 [compound 31] |
| 100 to 500 nM | CNc1cc2ncc(-c3cc(NC(=O)c4noc5c4CCCC5)ccc3C)cc2cn1 [compound 228] |
| 20 to 100 nM | CNc1cc2ncc(-c3cc(NC(=O)c4nn(C)c5c4CCCC5)cnc3C)cc2cn1 [compound 233] |
